The results in this text go back to patent US9546157B2, “Asymmetric piperidinyl-substituted ureas as medicines” (Helsinn Healthcare SA, priority 2014, dated 2017).

One data set can be described thus: Metabolic Stability (R). The following applies: R (not defined). The format is in vitro ADME.
Data set [1] can be described thus: Metabolic Stability (H = Human). The format is in vitro ADME.
A short description of data set [2]: Metabolic Stability (M = Mouse). Type of data set: in vitro ADME.
In the next data set the test system is C57BL/6J mice. Put plainly: Food intake test in mouse (GHSR1a antagonists). The format is in vivo. The following applies: for inhibition in vivo at 10 mg/kg: Mus musculus, ip, 1 h, i.p. 10 mg/kg. The gist of the method: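 Male C57BL/6J mice (18-22 g) were fasted overnight (16 h before dosing), then randomized by body weight to vehicle or test agent (n=6 each). Cumulative food intake was measured at 1, 2, 4, 8 and 24 hrs post-dose as premeasured food minus uneaten food.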

A further data set is described as follows: Metabolic Stability (D). The format is in vitro ADME. The following applies: D (not defined).
Data set [3] concerns the target T1, GHSR1a (Homo sapiens, UniProt Q92847).
T1 construct: expressed in transfected cells; host or cells: HEK293
The data set is described as follows: Calcium FLIPR assay, GHSR-1a antagonism (reduction of ghrelin response). The format is cell-based. The settings on record: HEK293/GHSR1a cells, ghrelin 10 nM. The gist of the method: (§1)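 Cells stably carrying human GHSR1a were plated a day ahead, dye-loaded, then given test compound. Agonist activity was the calcium rise over 2 minutes after compound addition at t=20 sec; antagonist activity was the reduction of the response to 10 nM ghrelin added together with compound.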

Data set [4] has as its target T1, GHSR1a. Put plainly: Calcium FLIPR assay, GHSR-1a agonism. Type of data set: cell-based. Further details: Emax: unit not given here. The following applies: HEK293/GHSR1a cells. The method, boiled down: as §1
The next data set concerns rat. Put plainly: Food intake in rat (PO, with or without ANA). The format is in vivo.

T1 sequence (Q92847 whole entry): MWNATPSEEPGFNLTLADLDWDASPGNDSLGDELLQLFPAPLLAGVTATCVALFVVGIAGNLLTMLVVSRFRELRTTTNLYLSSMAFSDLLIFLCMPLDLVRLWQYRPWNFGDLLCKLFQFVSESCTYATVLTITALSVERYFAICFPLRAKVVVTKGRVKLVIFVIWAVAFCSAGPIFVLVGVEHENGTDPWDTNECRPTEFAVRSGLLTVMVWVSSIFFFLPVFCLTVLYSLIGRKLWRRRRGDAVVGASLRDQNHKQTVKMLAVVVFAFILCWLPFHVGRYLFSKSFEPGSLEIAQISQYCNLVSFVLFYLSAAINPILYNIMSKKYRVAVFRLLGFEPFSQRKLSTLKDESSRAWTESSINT

For the compound `C[C@H](NC(=O)N(C)C1CCN(C)C1)c1ccc(-c2cnccn2)c(Cl)c1Cl` (mixture of isomers) [Compound H0837, 3-((S)-1-(2,3-dichloro-4-(pyrazin-2-yl)phenyl)ethyl)-1-methyl-1-(1-methylpyrrolidin-3-yl)urea], the “Metabolic Stability R” value in “Metabolic Stability (R)” is reported as “High H High M High R High D”. Besides, the “Metabolic Stability H” value in data set [1] is reported as “High H High M High R High D”. Also, in data set [2], the “Metabolic Stability M” value was “High H High M High R High D”. Also, the “Mouse Food Intake % increase” value in the data set on C57BL/6J mice (2 h, 30 mg/kg PO mice) amounted to 180%. In addition, the “Mouse Food Intake, result in words” value with C57BL/6J mice (PO 10 mg/kg + ANA (ANAM) 30 mg/kg mice) is on record as “NSE”. Moreover, the “Metabolic Stability D” value in “Metabolic Stability (D)” is given as “High H High M High R High D”. Besides, the IC50 – broadly, the concentration at which inhibition is half-maximal – at GHSR1a [3] amounted to 2 nM. Also, at GHSR1a [4], the EC50 (in general, the concentration giving half of the maximal effect) is over 30000 nM.

As for `CC(NC(=O)N(C)C1CCN(C)CC1)c1ccc(C#Cc2cscn2)c(Cl)c1Cl` (stereo not shown) [Compound H0751, 3-(1-(2,3-dichloro-4-(thiazol-4-ylethynyl)phenyl)ethyl)-1-methyl-1-(1-methylpiperidin-4-yl)urea], in data set [1], the “Metabolic Stability H” value was “High H High M”. The “Food intake in rat, result in words” value in the data set with rat (PO + ANA) was “no effect”. Besides, the “Metabolic Stability M” value in data set [2] was “High H High M”. Besides, the inhibition in vivo (as a rule, the percentage by which the read-out fell short of the control) at 10 mg/kg in the data set with C57BL/6J mice came out at 91%. Besides, the “Mouse Food Intake, result in words” value in the data set with C57BL/6J mice (PO, dose not given) is “no effect”. For the same compound, the half-maximal inhibitory concentration (IC50) at GHSR1a [3] was 6 nM. Further, at GHSR1a [4], the concentration giving a half-maximal response (EC50) was 62 nM and the Emax turned out to be 1267.

Turning to `CC(NC(=O)N(C)C1CCN(C)CC1)c1ccc(C#Cc2ccco2)c(Cl)c1Cl` (stereo not shown) [Compound H0762, 3-(1-(2,3-dichloro-4-(furan-2-ylethynyl)phenyl)ethyl)-1-methyl-1-(1-methylpiperidin-4-yl)urea], the “Metabolic Stability H” value in data set [1] is “High H High M”. Besides, in the data set on rat (PO), the “Food intake in rat, result in words” value was “NSEt”. Besides, in data set [2], the “Metabolic Stability M” value is on record as “High H High M”. Further, in the data set on C57BL/6J mice, the inhibition in vivo at 10 mg/kg was found to be 93%. Further, the “Mouse Food Intake, result in words” value in the data set with C57BL/6J mice (PO, dose not given) was “NSEt”. Besides, the half-inhibitory concentration (IC50) on GHSR1a [3] amounted to 5 nM. For the same compound, at GHSR1a [4], the EC50 is over 30000 nM.

As to `CC(NC(=O)N(C)C1CCN(C)CC1)c1ccc(-c2cncc(F)n2)c(Cl)c1Cl` (stereo not shown) [Compound H0795, 3-(1-(2,3-dichloro-4-(6-fluoropyrazin-2-yl)phenyl)ethyl)-1-methyl-1-(1-methylpiperidin-4-yl)urea], in data set [1], the “Metabolic Stability H” value is “High H High M”. Further, the “Food intake in rat, result in words” value in the data set with rat (PO + ANA) was “no activity”. For the same compound, the “Metabolic Stability M” value in data set [2] was “High H High M”. In addition, the “Mouse Food Intake, result in words” value in the data set on C57BL/6J mice (PO + ANA (ANAM), mice, dose not given) is “inhib”; in the data set with C57BL/6J mice (PO, dose not given), “NSE”. Further, at GHSR1a [3], the IC50 turned out to be 4 nM. For the same compound, at GHSR1a [4], the concentration for a half-maximal effect (EC50) is over 30000 nM.

For `CC(NC(=O)N(Cc1ccccc1)C1CCN(C)CC1)c1ccc(-c2cnccn2)c(Cl)c1Cl` (stereo not shown) [Compound H0825, 1-benzyl-3-(1-(2,3-dichloro-4-(pyrazin-2-yl)phenyl)ethyl)-1-(1-methylpiperidin-4-yl)urea], the “Metabolic Stability R” value in the data set “Metabolic Stability (R)” is reported as “Medium H Medium M Medium R”. The “Metabolic Stability H” value in data set [1] is “Medium H Medium M Medium R”. For the same compound, the “Metabolic Stability M” value in data set [2] is on record as “Medium H Medium M Medium R”. The IC50 on GHSR1a [3] stood at 10 nM. Further, the EC50 at GHSR1a [4] was over 30000 nM.

Regarding `CCN(C(=O)NC(C)c1ccc(-c2cnccn2)c(Cl)c1Cl)C1CCN(C)CC1` (stereo not shown) [Compound H0826, 3-(1-(2,3-dichloro-4-(pyrazin-2-yl)phenyl)ethyl)-1-ethyl-1-(1-methylpiperidin-4-yl)urea], in “Metabolic Stability (R)”, the “Metabolic Stability R” value is recorded as “High”. For the same compound, in data set [1], the “Metabolic Stability H” value is “High”. Further, the “Metabolic Stability M” value in data set [2] was “High”. For the same compound, in “Metabolic Stability (D)”, the “Metabolic Stability D” value is reported as “Medium”. Moreover, the IC50 at GHSR1a [3] came to 5 nM. The EC50 at GHSR1a [4] is over 30000 nM.

With `CN1CCC(N(C)C(=O)NC(c2ccc(-c3cnccn3)c(Cl)c2Cl)C(F)(F)F)CC1` (stereo not shown) [Compound H0830, 3-(1-(2,3-dichloro-4-(pyrazin-2-yl)phenyl)-2,2,2-trifluoroethyl)-1-methyl-1-(1-methylpiperidin-4-yl)urea], the “Metabolic Stability R” value in the data set “Metabolic Stability (R)” is on record as “High”. Also, the “Metabolic Stability H” value in data set [1] is “High”. Besides, the “Metabolic Stability M” value in data set [2] is reported as “High”. Moreover, the “Metabolic Stability D” value in “Metabolic Stability (D)” is listed as “Medium”. For the same compound, on GHSR1a [3], the IC50 amounted to 3 nM. Moreover, at GHSR1a [4], the concentration for a half-maximal effect (EC50) is over 30000 nM.

`CN1CC[C@@H](N(C)C(=O)NC(c2ccc(-c3cnccn3)c(Cl)c2Cl)C(F)(F)F)C(C)(C)C1` (stereo partly drawn) [Compound H0865, 3-(1-(2,3-dichloro-4-(pyrazin-2-yl)phenyl)-2,2,2-trifluoroethyl)-1-methyl-1-((R)-1,3,3-trimethylpiperidin-4-yl)urea]: in the data set “Metabolic Stability (R)”, the “Metabolic Stability R” value is listed as “Medium”. Further, the “Metabolic Stability H” value in data set [1] is listed as “Medium”. Besides, the “Metabolic Stability M” value in data set [2] is “Low”. Besides, at GHSR1a [3], the IC50 came out at 6 nM. Moreover, the EC50 on GHSR1a [4] was over 30000 nM.
